Assay results published in ChEMBL document CHEMBL1124229, “Spiro hydantoin aldose reductase inhibitors” (J Med Chem, 1988).

Tests used:
[1] = target: T1, Aldo-keto reductase family 1 member B1 (Bos taurus, UniProt P16116); experiment: In vitro inhibition of partially purified calf lens aldose reductase
Rattus norvegicus [2] = organism: Rattus norvegicus; experiment: Ability to cause 50% reduction in sorbitol levels of sciatic nerve of streptozotocinized rats was determined; type: functional
[3] = target: T1, Aldo-keto reductase family 1 member B1; experiment: In vitro inhibition of partially purified calf lens aldose reductase; value ranges from 10E-5 to 10E-6
[4] = target: T1, Aldo-keto reductase family 1 member B1; experiment: Inhibition of partially purified calf lens aldose reductase; value ranges from 10E-4 to 10e-5 M
[5] = pKa in DMF/H2O was measured; type: physicochemical
Rattus norvegicus [6] = organism: Rattus norvegicus; experiment: 50% reduction in sorbitol accumulation in isolated sciatic nerves incubated in the presence of high glucose concentration; type: functional; details: Sciatic nerve
Rattus norvegicus [7] = organism: Rattus norvegicus; experiment: Dose causing 50% reduction in sorbitol accumulation in sciatic nerves of streptozotocinized rats, (tid)
[8] = target: T1, Aldo-keto reductase family 1 member B1; experiment: In vitro inhibitory activity towards partially purified calf lens aldose reductase; value ranges from 10E-6 - 10E-7
[9] = Rattus norvegicus, Sciatic nerve, read-out: ED50

SMILES	IC50 [1] [µM]	ED50 (Rattus norvegicus [2]; [9]) [mg/kg]	further results
O=C(O)C1CCc2ccccc21 (configuration not stated)	> 100	–	–
O=C1CCC2(CCCc3ccccc32)C(=O)N1 (configuration not stated)	> 100	> 25	–
O=C1NC(=O)C2(N1)c1ccccc1CCC2c1ccccc1 (configuration not stated)	> 100	> 25	–
O=C1NC(=O)C(c2ccccc2)(c2ccccc2)N1 [PHENYTOIN]	> 100	> 250	–
O=C1NC(=O)[C@@]2(CCOc3ccc(F)cc32)N1 (stereo in doubt; 32) [SORBINIL]	–	–	ED50 (Rattus norvegicus [2]): 0.75 mg/kg
O=C1NC(=O)C2(CCCCc3ccccc32)N1 (configuration not stated)	> 100	> 25	–
CSc1ccc2c(c1)C1(CCO2)NC(=O)NC1=O (configuration not stated)	1	< 25	–
COc1ccc2c(c1)C1(CCO2)NC(=O)NC1=O (configuration not stated)	–	> 2.5	IC50 [3]: 10 µM
O=C1NC(=O)C2(CCc3ccc(O)cc32)N1 (configuration not stated)	–	> 10	IC50 [4]: 100 µM
CS(=O)(=O)c1ccc2c(c1)C1(CCO2)NC(=O)NC1=O (configuration not stated)	–	–	IC50 [4]: 100 µM
Cc1ccc2c(c1)C1(CCO2)NC(=O)NC1=O (configuration not stated)	–	5	IC50 [3]: 10 µM
O=C1NC(=O)C2(CCCCC2)N1	100	> 25	–
O=C1NC(=O)[C@@]2(CCOc3ccc(Cl)cc32)O1	0.1	2.5	pKa [5]: 5.6; IC50 (Rattus norvegicus [6]): 10 µM; ED50 (Rattus norvegicus [7]): 1e-05 M/kg
O=C(O)C1CCCc2ccccc21 (configuration not stated)	> 100	–	–
COc1cccc2c1CCCC21NC(=O)NC1=O (configuration not stated)	10	> 25	–
O=C1NC(=O)C2(CCSc3cc(Cl)c(Cl)cc32)N1 (configuration not stated)	< 0.1	2.5	–
O=C1NC(=O)C2(CCOc3ccc(CN4CCCCC4)cc32)N1 (configuration not stated)	100	–	–
O=C1NCNC12CCCc1ccccc12 (configuration not stated)	> 100	25	–
Cc1cc(Cl)cc2c1OCCC21NC(=O)NC1=O (configuration not stated)	< 0.1	< 1.5	–

SMILES	IC50 [1] [µM]	ED50 (Rattus norvegicus [2]; [9]) [mg/kg]	further results
Cc1cc(Cl)cc2c1OCCC2C(=O)O (configuration not stated)	–	–	IC50 [3]: 10 µM
O=C1NC(=O)C2(CCC(C(=O)O)c3ccccc32)N1 (configuration not stated)	> 100	–	–
O=C(O)C1Cc2ccccc2C1	100	–	–
O=C1NC(=O)C2(CCc3cc4c(cc32)OCO4)N1 (configuration not stated)	–	> 5	IC50 [3]: 10 µM
O=C1NC(=O)C2(CCSc3c(Cl)cc(Cl)cc32)N1 (configuration not stated)	< 0.1	–	–
COc1cc2c(c(OC)c1OC)C1(CC2)NC(=O)NC1=O (configuration not stated)	100	–	–
O=C1CC2(CCCc3ccccc32)CN1 (configuration not stated)	> 100	> 25	–
O=C1NC(=O)C2(CC[S+]([O-])c3ccc(F)cc32)N1 (configuration not stated)	–	> 1.5	IC50 [8]: 1 µM
O=C1NC(=O)C2(CCOc3c(-c4ccccc4)cccc32)N1 (configuration not stated)	–	10	–
O=C1NC(=O)C2(CCOc3ccc4ccccc4c32)N1 (configuration not stated)	10	> 1.5	–
Cc1cc2c(n1C)CCCC21NC(=O)NC1=O (configuration not stated)	> 100	> 25	–
O=C1NC(=O)[C@]2(CCSc3ccc(F)cc32)N1	–	–	IC50 [3]: 10 µM
O=C1NC(=O)C2(CCS(=O)(=O)c3ccc(F)cc32)N1 (configuration not stated)	–	2.5	IC50 [8]: 1 µM
O=C1NC(=O)C2(CCOc3ccc(Br)cc32)N1 (configuration not stated)	–	< 1.5	IC50 [8]: 1 µM
O=C1NC(=O)C2(CCSc3c(Cl)ccc(Cl)c32)N1 (configuration not stated)	> 100	–	–
O=C1NC(=O)C2(CCOc3c(Cl)cc(Cl)cc32)N1 (configuration not stated)	< 0.1	0.25	–
O=C1NC(=O)C2(CCCc3ccccc32)O1 (configuration not stated)	10	> 50	–
O=C(O)C1CCSc2ccccc21 (configuration not stated)	100	–	–
O=C1NC(=O)C2(CCC(c3ccccc3)c3ccccc32)N1 (configuration not stated)	–	> 25	–

Further lines, with some results ahead:

IC50 [1] [µM]	SMILES	ED50 (Rattus norvegicus [2]; [9]) [mg/kg]	further results
> 100	S=C1NC(=S)C2(CCCc3ccccc32)N1 (configuration not stated)	> 25	–
> 100	O=C1NC(=S)NC12CCCc1ccccc12 (configuration not stated)	–	–
> 100	COc1ccc(Cl)c2c1C1(CCO2)NC(=O)NC1=O (configuration not stated)	–	–
< 0.1	O=C1NC(=O)[C@@]2(CCSc3ccc(F)cc32)N1	0.75	–
> 100	O=CNC(=O)NC1CCc2ccccc21 (configuration not stated)	> 10	–
> 100	CN1C(=O)N(C)C2(CCCc3ccccc32)C1=O (configuration not stated)	25	–
100	O=C(O)C1CCOc2ccccc21 (configuration not stated)	–	–
> 100	COc1ccc(Cl)cc1C1(C)NC(=O)NC1=O (configuration not stated)	–	–
10	O=C(O)C1CCSc2cc(Cl)c(Cl)cc21 (configuration not stated)	–	–
100	CN(C)S(=O)(=O)c1ccc2c(c1)C1(CCO2)NC(=O)NC1=O (configuration not stated)	> 5	–
10	COc1ccc2c(c1)CCC21NC(=O)NC1=O (configuration not stated)	> 25	–
> 100	O=C1NCC2(CCc3ccccc32)N1 (configuration not stated)	–	–
< 100	O=C(O)C1CCSc2ccc(Cl)cc21 (configuration not stated)	–	–
100	NC(=O)C1(NC=O)CCc2ccccc21 (configuration not stated)	> 10	–
100	O=C1NC(=O)C2(CCSc3c(Cl)cccc32)N1 (configuration not stated)	> 1.5	–
